Measured values taken from US20240329033A1, “MonoMac-1 Cells Expressing CD16 and CD163” (Temple University-Of The Commonwealth System of Higher …, priority 2016, published 2024).

What was measured:
Format in all cases: cell-based, human
[1] = test system: MONO-MAC-1 cells; test: Flow cytometry of CD163, CD16 and CD4 expression in differentiated MONO-MAC-1 cells; details: for expression of CD163+ / expression of CD16+: added for 24 hours to MonoMac-1 treated with PMA+DEX+MCSF+LPS; for expression of CD163+: FIG. 6A; for expression of CD16+: FIG. 6B
Method: MONO-MAC-1 cells were cultured at 37° C. in a humidified atmosphere containing 5% CO2 using RPM1 1640 medium supplemented with 10% heat-inactivated fetal bovine serum (FBS, Sigma) and 1% of stable glutamine, 1 mM sodium pyruvic acid and 1×MEM non-essential amino acids were added. Cells were seeded at a density of 0.5×10^6 cells/ml and were sub cultured upon reaching 1× 10^6 cells/ml. Medium was changed every 2 to 3 days. […] Data were analyzed with GraphPad Prism (version 6) soft-ware. Flow cytometric measurements were performed using four colors FACSCalibur (Becton Dickinson).

[2] = test system: tryptophan catabolism/IDO activity in MonoMac-1; test: Tryptophan catabolism/IDO activity (kynurenine/tryptophan in cell culture supernatant) in MonoMac-1; details: for kynurenine/tryptophan ratio: cell culture supernatant, FIG. 7C
Source text: A major mechanism for inflammation and disease pathogenesis involves tryptophan catabolism via the kynurenine pathway. As such we evaluated cytokine inducers of IDO enzyme induction, a limiting step in the kynurenine pathway.
TNF α and IFN γ induce tryptophan catabolism/IDO activity as determined by increase in the kynurenine/tryptophan ratio in cell culture supernatant, in response to TNF alpha and IFN gamma treatment (FIG. 7).

[3] = test system: MCP-1; test: MCP-1 concentration in MonoMac-1 culture; details: FIG. 8
[4] = induction: PMA 20 ng/ml ± LPS 10 ng/ml 3 days, then MCSF 5 ng/ml + DEX 200 ng/ml 4 days, FIG. 1A

Molecule	expression of CD163+ [1]	expression of CD16+ [1]	kynurenine/tryptophan ratio [2]	MCP-1 concentration [3]	expression of CD163+ monocytes [1, 4]	other results
TNF α	further increase the expression	further increase the expression	increase	increase MCP-1		
lipopolysaccharide [LPS, reference compound]					has the most effect	percentage of CD16+CD163+ monocytes ([1]; induction: PMA ± LPS 3 days, then DEX+MCSF 4 days, FIG. 2, FIG. 3): required to have maximum effect
FC(F)(F)c1ccc(CNc2ccc(Cc3c[nH]c4ncc(Cl)cc34)cn2)cn1 [PLX3397, reference compound]						expression of CD16+ monocytes ([1]; antagonist 500 nM added after PMA/LPS 72 h and 4 days MCSF+DEX, FIG. 4A): reduction in expression; expression of CD4+ monocytes ([1]; antagonist 500 nM added after PMA/LPS 72 h and 4 days MCSF+DEX, FIG. 4B): reduction in expression; expression of CD163+ monocytes ([1]; antagonist 500 nM added after PMA/LPS 72 h and 4 days MCSF+DEX, FIG. 4C): significantly decreases expression
macrophage colony-stimulating factor (protein, UniProt P09603 33-554, looked up) Macrophage colony-stimulating …: EEVSEYCSHMIGSGHLQSLQRLIDSQMETSCQITFEFVDQEQLKDPVCYLKKAFLLVQDIMEDTMRFRDNTPNAIAIVQLQELSLRLKSCFTKDYEEHDKACVRTFYETPLQLLEKVKNVFNETKNLLDKDWNIFSKNCNNSFAECSSQDVVTKPDCNCLYPKAIPSSDPASVSPHQPLAPSMAPVAGLTWEDSEGTEGSSLLPGEQPLHTVDPGSAKQRPPRSTCQSFEPPETPVVKDSTIGGSPQPRPSVGAFNPGMEDILDSAMGTNWVPEEASGEASEIPVPQGTELSPSRPGGGSMQTEPARPSNFLSASSPLPASAKGQQPADVTGTALPRVGPVRPTGQDWNHTPQKTDHPSALLRDPPEPGSPRISSLRPQGLSNPSTLSAQPQLSRSHSSGSVLPLGELEGRRSTRDRRSPAEPEGGPASEGAARPLPRFNSVPLTDTGHERQSEGSFSPQLQESVFHLLVPSVILVLLAVGGLLFYRWRRRSHQEPQRADSPLEQPEGSPLTQDDRQVELPV					promotes expression	
IFN γ: cytokine inducer of IDO enzyme induction (protein, UniProt P01579 24-161, looked up) Interferon gamma: QDPYVKEAENLKKYFNAGHSDVADNGTLFLGILKNWKEESDRKIMQSQIVSFYFKLFKNFKDDQSIQKSVETIKEDMNVKFFNSNKKKRDDFEKLTNYSVTDLNVQRKAIHELIQVMAELSPAAKTGKRKRSQMLFRG	further increase the expression	further increase the expression	increase	increase MCP-1		tryptophan concentration ([2]; added to the combination of PMA, LPS, MCSF and DEX, FIG. 7A): decreased; kynurenine concentration ([2]; added to the combination of PMA, LPS, MCSF and DEX, FIG. 7B): increased
